In ChEMBL document CHEMBL1153643, “Design, synthesis and evaluation of aspirin analogues having an additional carboxylate substituent for antithrombotic activity” (Bioorg Med Chem Lett, 2009):
Activity calls are given as the source filed them. The calls are words filed in the database; no cut-off is given here.

Experiments:
Type in all cases: cell-free
[1] = target: Prostaglandin G/H synthase 1 (Homo sapiens) (UniProt P23219); test: Inhibition of PGHS-1 in human platelet rich plasma assessed as inhibition of arachidonic acid-induced platelet aggregation at 1000 um treated 5 min before arachidonic acid challenge by turbidimetry
Chain of Prostaglandin G/H synthase 1 (Homo sapiens) (P23219 whole entry): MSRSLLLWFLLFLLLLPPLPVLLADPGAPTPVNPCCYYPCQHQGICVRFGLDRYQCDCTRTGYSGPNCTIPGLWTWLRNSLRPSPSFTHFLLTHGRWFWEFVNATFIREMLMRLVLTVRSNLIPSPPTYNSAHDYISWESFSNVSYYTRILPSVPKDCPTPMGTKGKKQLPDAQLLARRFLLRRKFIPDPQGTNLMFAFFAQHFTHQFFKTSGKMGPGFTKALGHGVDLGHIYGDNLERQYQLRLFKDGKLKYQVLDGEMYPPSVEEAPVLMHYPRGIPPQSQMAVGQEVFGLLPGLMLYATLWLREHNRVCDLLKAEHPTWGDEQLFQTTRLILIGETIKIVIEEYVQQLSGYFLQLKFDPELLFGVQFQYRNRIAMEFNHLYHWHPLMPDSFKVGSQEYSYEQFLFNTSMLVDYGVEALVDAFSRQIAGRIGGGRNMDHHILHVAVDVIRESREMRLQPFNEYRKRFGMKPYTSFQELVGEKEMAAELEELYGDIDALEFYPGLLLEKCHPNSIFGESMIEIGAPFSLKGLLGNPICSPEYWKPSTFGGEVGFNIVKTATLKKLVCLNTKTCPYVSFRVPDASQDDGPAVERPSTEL

[2] = target: Prostaglandin G/H synthase 1 (Homo sapiens) (UniProt P23219); test: Ratio of compound IC50 to aspirin IC50 for PGHS-1 in human platelet rich plasma assessed as inhibition of arachidonic acid-induced platelet aggregation
[3] = target: Prostaglandin G/H synthase 1 (Homo sapiens) (UniProt P23219); test: Inhibition of PGHS-1 in human platelet rich plasma assessed as inhibition of U46619-induced platelet aggregation in human platelet rich plasma at 1000 um

| Activity [1] | Ratio IC50 [2] | Activity [3] | SMILES |
| --- | --- | --- | --- |
| inactive | – | – | CC(=O)Oc1c(CCCCC(=O)O)cccc1C(=O)O |
| inactive | – | – | CC(=O)Oc1c(C(=O)O)cccc1C(=O)CCCC(=O)O |
| – | 15 | inactive | COC(=O)CCCCc1cccc(C(=O)OC)c1OC(C)=O |
| inactive | – | – | CC(=O)Oc1c(CCCC(=O)O)cccc1C(=O)O |
